In EP0727211A1, “Use of src SH2 specific compounds to treat a bone resorption disease” (SMITHKLINE BEECHAM CORPORATION, priority 1995, dated 1996) one finds Ki and IC50 data, which are given here for nine compounds.

In this experiment the target is T1, human fyn SH2 domain (Homo sapiens, UniProt P06241).
T1 construct: SH2 domain of human fyn (amino acids 143-252); made in house; host or cells: E. coli (pGEX-2T)
Nature of the experiment: SH2 domain / pY peptide binding assay (ELISA-based, 96 well plate), fyn SH2. The following applies: for Ki: Ki calculated from IC50 by the expanded equation, Table II; for IC50: cloned human SH2 domain fusion protein, 0.1 uM biotinylated pY peptide, Table I. The method, then:
The inhibitory activity of compounds at the different human SH2 domains was determined in vitro using SH2 domains expressed as fusion proteins in E. coli. The SH2 domains used herein were the human forms of the src SH2 domain, Grb2 SH2 domain, lck SH2 domain, fyn SH2 domain, SH-PTP2 SH2 domain, p85 SH2 domain and hcp SH2 domain.
Fusion proteins having the structure GST-X-SH2 were prepared as described in the GST gene fusion kit system available from Pharmacia (New Jersey). GST is the tagging sequence glutathione s-transferase epitope (SEQ ID NO: 8) for fyn, Grb2 and SH-PTP2 and is the tagging sequence glutathione s-transferase epitope (SEQ ID NO: 9) for p85. SH2 refers to the SH2 domains of fyn, Grb2, p85 and SH-PTP2 which were expressed and purified using glutathione Sepharose 4B (Pharmacia) according to "Current Protocols in Molecular Biology", ed. FM Ausubel et al., pub. John Wiley and Sons, Inc., (1995), p 16.7.1. X is an appropriate linker, preferably of 6 to 21 base pairs, used to keep the SH2 construct in frame and complement cloning. As such, the sequence of X is not critical. One skilled in the art can readily construct the appropriate linker. The DNA sequence encoding each GST-X-SH2 fusion protein was designed such that the indicated restriction sites (BamH1 and EcoRI) flank the SH2 region. The vector used in the instant experiments was the E. coli expression vector pGEX-2T (Pharmacia) for fyn, Grb2 and SH-PTP2, and pGEX-3X (Pharmacia) for p85. Each of these vectors result in SH2 constructs having additional C-terminal amino acids as described below.
The sequence encoding the SH2 domain of human fyn (amino acids 143-252) (Yamamoto, T. et al. Proc. Natl. Acad. Sci. USA 83, 5459-5463 (1986)) was cloned into the BamHI and EcoRI sites of the expression vector pGEX-2T. The SH2 domain including the additional C-terminal amino acids leucine-threonine-asparagine-serine-serine (SEQ ID NO: 10) was cloned by PCR techniques known to those skilled in the art to yield the expressed fusion protein GST-X-fyn.
The binding assays for the SH2 domains and pY peptides were performed in an ELISA-based 96 well plate assay. In Millipore 96 well filter plates, hydrophilic Durapore® (pore size 0.65um Cat. No. MADVN6550), was added 2 ul (50% suspension) of Protein-G Sepharose (available from Pharmacia of N.J. Cat. No. 17-0618-01) and either 2 ul of 2 mg/ml of MAB178. (for gp120/SH2 domain fusion proteins src, lck and hcp) or 0.25 ul of anti-GST polyclonal antisera (available from Pharmacia of N.J.) (for GST/SH2 domain fusion proteins fyn, Grb2, p85 and SH-PTP2). 10 pmol of the subject SH2 domain fusion protein were added to their respective wells. The volume was brought to 100 ul with TBS-T (tris buffered saline plus 0.05% tween-20), incubated and shaken at room trmperature for 1 hr. then washed 1x with TBS-T (4°C). 90 ul of TBS-T were then added to each well. Specific pY biotinylated peptides were diluted to a concentration of 1.0 uM in TBS-T (these peptides can be obtained from Bachem Bioscience of Pennsylvania, Genosys Biotechnologies of Texas and California Peptide Research of California). 10 ul was aliquoted per well to yield a final concentration of 0.1 uM (approx, the Kd for each SH2 domain/peptide pair) and a final volume of 100 ul. The assay plates were incubated until equilibrium binding was attained (3 hr at 4°C with shaking). The assay plates were washed 2 X per well TBS-T (4°C), then 100 ul of SABC (Strepavidin biotinylated horseradish peroxidase complex, available from the Zymed corporation of California cat. no. 93-0043, 1 drop reagent A (streptavidin) and 1 drop of reagent B (AH-biotin conjugated-horseradish peroxidase) per 10 ml of TBS-T, incubated at 37°C for 30 minutes, then cooled to 4°C) was added per well, then incubated at 4°C for 30-60 minutes. The plates were then washed 4 X with TBS-T (4°C) (250 ul/well)/wash). […]

T1 sequence (P06241 143-252): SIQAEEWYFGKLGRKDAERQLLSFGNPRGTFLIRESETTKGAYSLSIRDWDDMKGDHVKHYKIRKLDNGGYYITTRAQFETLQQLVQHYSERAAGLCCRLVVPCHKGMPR

`Cc1nnc(SCC2=C(C(=O)O)N3C(=O)[C@@H](NC(=O)C(N)c4ccc(C(=O)O)cc4)[C@H]3SC2)s1` (stereo partly drawn) [Compound 1, 7-[D,L-α-Amino-α-(4-carboxyphenyl)acetamido]-3-[2-(5-methyl-1,3,4-thiadiazolyl)thiomethyl]Δ^3-cephem-4-carboxylic Acid]: the Ki is more than 1000 µM and the 50% inhibitory concentration (IC50) is more than 300 µM.
With `Cc1ccc(C(=O)c2ccc(C(=O)c3ccc(CC=O)cc3)cc2)cc1` [Compound 4, 4-[4-(4-Methylbenzoyl)benzoyl]phenylacetaldehyde], the Ki is more than 1000 µM and the 50% inhibitory concentration (IC50) is more than 300 µM.
“4-acetamido-benzamido-trans-4-methyl-cyclohexyl-N-1-(amino-R-2-(methoxy methyl)-pyrrolidine) carboxamide [Compound 8]”: the Ki was more than 1000 µM and the IC50 is more than 300 µM.
The matching figures for `CCCCCCNC(=O)[C@H]1CC[C@H](CNC(=O)c2ccc([N+](=O)[O-])cc2)CC1` [Compound 7, 4-nitro-benzamido-trans-4-methyl-cyclohexyl-N-hexyl carboxamide]: more than 1000 µM and more than 300 µM.
On the same counts, the results for `CCCNC(=O)[C@H]1CC[C@H](CNC(=O)/C=C/c2ccc(C=O)cc2)CC1` [Compound 9, 4-formyl-E-cinnamido-trans-4-methyl-cyclohexyl-N-(propyl) carboxamide] are more than 1000 µM and more than 300 µM.
Turning to `Cc1nc2sc3c(c2c2[nH][nH]c(=O)c12)CCC1(C3)OCCO1` [Compound 3, 8,8-Ethylenedioxy-2,3,7,8,9,10-hexahydro-4-methyl-1H-benzo[b]thieno[2,3-b]pyrazolo[3,4-d]pyridin-3-one], the Ki was more than 1000 µM and the IC50 is more than 300 µM.
As for `Cc1nc2sc3c(c2c2[nH][nH]c(=O)c12)CCCC3` [Compound 10, 2,3,7,8,9,10-Hexahydro-4-methyl-1H-benzo[b]thieno[2,3-b]pyrazolo[3,4-d]pyridin-3-one], the Ki was more than 1000 µM and the IC50 is more than 300 µM.
As to `N[C@@H](Cc1cc(Br)c(Oc2ccc(O)c(Cc3ccc(O)nn3)c2)c(Br)c1)C(=O)O` [Compound 2, L-3,5-Dibromo-3'-(6-oxo-3(1H)-pyridazinylmethyl)-thyronine], the inhibition constant Ki is more than 1000 µM and the IC50 is more than 300 µM.
On the same counts, the results for `Cc1nc2sc3c(c2c2c1c(=O)[nH]n2C)CCC1(C3)OCCO1` [Compound 5, 1,4-Dimethyl-8,8-ethylenedioxy-2,3,7,8,9,10-hexahydro-1H-benzo[b]thieno[2,3-b]pyrazolo[3,4-d]pyridin-3-one] are more than 1000 µM and more than 300 µM.

One may read the Ki as the equilibrium dissociation constant of an inhibitor or competing ligand from its target. A word on the IC50: it is the concentration at which inhibition is half-maximal.
